Laboratory results taken from patent US20100216886A1, “POLYMORPHS OF N2-(1,1'-BIPHENYL-4-YLCARBONYL)-N1-[2-(4-FLUOROPHENYL)-1,1-DIMETHYLETHYL]-L-ALPHA-GLUTAMINE” (Wyeth, priority 2006, published 2010).
Values after ≈ are worked out from the molar mass of the structure shown. “Also recorded” adds a separate entry of the source. Where a name gives a salt, the structure may show the parent alone. Read-outs that look alike come from different tables or passages of the source.

Experiments:
[1] = Dynamic Vapor Sorption (DVS) analysis; type: physicochemical; conditions: room temperature, 6-hour equilibration period
Description: Sample F was subject to Dynamic Vapor Sorption (DVS) analysis at room temperature. The sample was first analyzed by Karl Fischer (KF) titration containing initial moisture content of 3.7% for the monohydrate form. RH cycling started at 50% relative humidity (RH) to 100% RH and down to 0% RH and then back up to 100% RH. A 3-hour/step equilibration period was found insufficient, so the run was repeated with a 6-hour period, which was still not sufficient.
(§1) As a result, an equilibrium moisture study using desiccators containing saturated salt solutions for humidity control was performed. Sample F was incubated at 0%, 15%, 31%, 66%, 87%, and 100% RH in room temperature for up to 20 days. Samples were periodically assayed by KF titration to give the kinetic profiles. XRD analysis was performed at the end of 20 days. The data is summarized in Table 8 with kinetic and equilibrium data plotted in FIGS. 18 and 19.

[2] = Equilibrium moisture study in desiccators with saturated salt solutions (KF, XRD); type: physicochemical; conditions: Sample F incubated at room temperature, 20 days; listed as sesquihydrate
Description: as §1, with “Sample F was incubated at 0%, 15%, 31%, 66%, 87%, and 100% RH in room temperature for up to 20 days.” left out

[3] = Solubility in water and 2% Tw80 of samples used in toxicological formulation assessments; type: physicochemical
Description: Table 6 summarizes various solid-state properties of samples used in toxicological formulation assessments.

[4] = In situ rat perfusion model, metoprolol as reference; type: in vivo; design: Papp: dose or concentration left out as unconfirmed
Description: The permeability was 18.2 nm/sec, which is higher than the 14.5 nm/sec value obtained for metoprolol (Table 13).

[5] = First CACO-2 study, metoprolol as reference; conditions: human; for recovery: Caco-2, pH 7.4, % Recovery, pH 7.4
[6] = Second CACO-2 study, propranolol as reference; type: in vitro ADME; conditions: human, Caco-2; A → B, apical pH 6, basolateral pH 7, without verapamil
Description: The second CACO-2 study gave somewhat different results (Table 12). Because metoprolol interferes with the LC/MS assay, propranolol, which has a permeability that is […] metoprolol, was used as the FDA calibration compound. The apical pH was controlled at 6 and basolateral pH at pH 7. In addition, verapamil was used as a competitive inhibitor of the Pgp (P-glycoprotein) transporter. The ratios to propranolol were 1.00 and 0.77 with and without verapamil. […] The B→A/A→B ratios were low at 0.3 and 0.3, with and without verapamil, respectively, indicating again no efflux […].

[7] = Solubility of suspensions in Tox formulation (2% Tween 80 in water) by HPLC; type: physicochemical; conditions: ambient conditions
Description: Suspensions of 10 to 20 mg/mL of compound (I) in a Tox (toxicological) formulation (2% Tween 80 in water) using the polymorphs described above were prepared and equilibrated at ambient conditions. The stability of the suspensions was evaluated visually and the solubility of the suspensions was determined by HPLC.
Mobile Phase: A=900 mL/100 mL/0.1 mL Water/Acetonitrile/TFA
B=100 mL/900 mL/0.1 mL Water/Acetonitrile/TFA

[8] = Polymorphic conversion study in aqueous media (2% Tween 80, water); type: physicochemical
Description: Polymorphic conversion of Form A to Form B was not observed with Sample D in 2% Tween 80 or water.
Polymorph pseudo Form A was obtained from a scaled up preparation of polymorph Form A (Sample E).
The polymorphic conversion appeared to be slower in water than in the 2% Tween suspension, probably due to the lower solubility in water.
DSC data also supported this observation (FIG. 11).

[9] = physchem; conditions: for solubility at 24 h: aqueous buffer, thermodynamic from solid
Description: The pH solubility profile was generated first with Sample D containing polymorph Form A, and then with Sample F containing polymorph Form B, in HCl/NaOH solutions. After 24 hour equilibration, suspensions were centrifuged and the supernatants assayed by HPLC.
The solubility data was analyzed as a function of pH using the Henderson-Hasselbach equation:
Solubility=S0·[10^(PH-pKa)+1],
where S0 is the intrinsic solubility of the free acid.

[10] = Solid state stability; type: physicochemical
[11] = Solid state stability; type: physicochemical; conditions: 40° C./75% RH, open and closed vials, 3 months
Description: Sample F containing polymorph Form B was further investigated at 40° C./75% RH using open and closed vials for 3 months. […] Therefore, the monohydrate needs to be stored in hermetically sealed containers in order to prevent conversion to the sesquihydrate.

[12] = Thermal stress of polymorph Form B (vacuum drying, oven); type: physicochemical
Description: Polymorph Form B (Sample F) was stressed with vacuum drying at 40° C.

[13] = 1-month storage at 40° C./75% RH
[14] = vacuum drying at 40° C., 36 hours

SMILES: CC(C)(Cc1ccc(F)cc1)NC(=O)[C@H](CCC(=O)O)NC(=O)c1ccc(-c2ccccc2)cc1 [Form C, N^2-(1,1′-biphenyl-4-ylcarbonyl)-N^1-[2-(4-fluorophenyl)-1,1-dimethylethyl]-L-α-glutamine]
- RH range in which the form is stable (DVS) [1]: 30-100 % RH
- RH range at which the form is present by XRD [2]: 66-100 % RH

SMILES: CC(C)(Cc1ccc(F)cc1)NC(=O)[C@H](CCC(=O)O)NC(=O)c1ccc(-c2ccccc2)cc1 [G, N^2-(1,1′-biphenyl-4-ylcarbonyl)-N^1-[2-(4-fluorophenyl)-1,1-dimethylethyl]-L-α-glutamine]
- Solubility, 2% Tw80 [3]: 127 µg/mL (≈ 266 µM)
- pH of 2% Tw80 solubility sample [3]: 5.9

SMILES: COCCc1ccc(OCC(O)CNC(C)C)cc1 (centres unmarked) [Metoprolol, reference compound]
- Papp ([4]; in situ rat perfusion model, read-out: permeability): 1.45 ×10⁻⁶ cm/s
- Peff × 10^−1 (μm/sec) ([4]; rat perfusion, 20 μg/mL): 1.45 × 10^−1 μm/sec
- Papp A→B ([5]; Caco-2, pH 7.4): 60.4 ×10⁻⁶ cm/s
- recovery ([5]; A → B): 109%
- recovery ([5]; B → A): 115%

SMILES: CC(C)NCC(O)COc1cccc2ccccc12 (centres unmarked) [Propranolol, reference compound]
- Papp A→B [6]: 62.6 ×10⁻⁶ cm/s

SMILES: CC(C)(Cc1ccc(F)cc1)NC(=O)[C@H](CCC(=O)O)NC(=O)c1ccc(-c2ccccc2)cc1 [Sample 1, N^2-(1,1′-biphenyl-4-ylcarbonyl)-N^1-[2-(4-fluorophenyl)-1,1-dimethylethyl]-L-α-glutamine]
- solubility [7]: 201.9 µg/mL (≈ 424 µM)

SMILES: CC(C)(Cc1ccc(F)cc1)NC(=O)[C@H](CCC(=O)O)NC(=O)c1ccc(-c2ccccc2)cc1 [Sample 2, N^2-(1,1′-biphenyl-4-ylcarbonyl)-N^1-[2-(4-fluorophenyl)-1,1-dimethylethyl]-L-α-glutamine]
- solubility [7]: 245.0 µg/mL (≈ 514 µM)

SMILES: CC(C)(Cc1ccc(F)cc1)NC(=O)[C@H](CCC(=O)O)NC(=O)c1ccc(-c2ccccc2)cc1 [Sample 4, N^2-(1,1′-biphenyl-4-ylcarbonyl)-N^1-[2-(4-fluorophenyl)-1,1-dimethylethyl]-L-α-glutamine]
- solubility ([7]; 2% Tween 80 in water (Tox formulation), aqueous with cosolvent or surfactant or cyclodextrin, thermodynamic from solid, read-out: Solubility): 221 µg/mL (≈ 464 µM)

SMILES: CC(C)(Cc1ccc(F)cc1)NC(=O)[C@H](CCC(=O)O)NC(=O)c1ccc(-c2ccccc2)cc1 [Sample 7, N^2-(1,1′-biphenyl-4-ylcarbonyl)-N^1-[2-(4-fluorophenyl)-1,1-dimethylethyl]-L-α-glutamine]
- solubility [7]: 216.4 µg/mL (≈ 454 µM)

SMILES: CC(C)(Cc1ccc(F)cc1)NC(=O)[C@H](CCC(=O)O)NC(=O)c1ccc(-c2ccccc2)cc1 [Sample A, N^2-(1,1′-biphenyl-4-ylcarbonyl)-N^1-[2-(4-fluorophenyl)-1,1-dimethylethyl]-L-α-glutamine]
- Degradation products of compound (I) by HPLC in converted materials ([8]; after conversion in 2% Tween 80 or water): do not contain degradation products

SMILES: CC(C)(Cc1ccc(F)cc1)NC(=O)[C@H](CCC(=O)O)NC(=O)c1ccc(-c2ccccc2)cc1 [Sample D, N^2-(1,1′-biphenyl-4-ylcarbonyl)-N^1-[2-(4-fluorophenyl)-1,1-dimethylethyl]-L-α-glutamine]
- Solubility, 2% Tw80 [3]: 468 µg/mL (≈ 982 µM)
- pH of 2% Tw80 solubility sample [3]: 5.4
- Solubility, Water [3]: 37 µg/mL (≈ 77.6 µM)
- pH of water solubility sample [3]: 5.5
- Polymorphic conversion ([8]; 2% Tween 80/water suspension, overnight): not observed; also recorded: did not undergo polymorphic conversion
- Polymorphic conversion / Polymorph Form after stirring ([8]; suspension 100 mg/mL in water, overnight (~18 hr), ambient conditions): not observed; also recorded: did not undergo polymorphic conversion
- solubility at 24 h ([9]; Solubility at pH<4): ~4.5 µg/mL (≈ 9.44 µM)
- Chemical stability, solid state ([10]; 14-day storage at room temperature, in temperatures up to 80° C., and in a light box (510 fc)): demonstrated chemical stability

SMILES: CC(C)(Cc1ccc(F)cc1)NC(=O)[C@H](CCC(=O)O)NC(=O)c1ccc(-c2ccccc2)cc1 [Sample F, N^2-(1,1′-biphenyl-4-ylcarbonyl)-N^1-[2-(4-fluorophenyl)-1,1-dimethylethyl]-L-α-glutamine]
- Solubility, 2% Tw80 [3]: 217 µg/mL (≈ 455 µM)
- pH of 2% Tw80 solubility sample [3]: 5.9
- Solubility, Water [3]: 99 µg/mL (≈ 208 µM)
- pH of water solubility sample [3]: 7.6
- solubility at 24 h ([9]; Solubility at pH<4 (below HPLC detection limit)): < 0.011 µg/mL
- Chemical stability, solid state [11]: chemically stable
- Polymorphic conversion (DSC and XRD) [10, 13]: polymorphic conversion from Form B to Form C
- Water content [10, 13]: 5.4%
- Conversion of monohydrate to anhydrate ([12]; 100° C. oven, 23 hours): convert completely to the anhydrate
- Conversion of monohydrate to anhydrate [12, 14]: did not convert to the anhydrate
- Water retained [12, 14]: 2.95%

SMILES: CC(C)(Cc1ccc(F)cc1)NC(=O)[C@H](CCC(=O)O)NC(=O)c1ccc(-c2ccccc2)cc1 [sodium salt, N^2-(1,1′-biphenyl-4-ylcarbonyl)-N^1-[2-(4-fluorophenyl)-1,1-dimethylethyl]-L-α-glutamine]
- Solubility at pH 12.8 ([9]; HCl/NaOH solutions, 24 hour equilibration, HPLC): 4.7 mg/mL
